# Values quoted from earlier work as cited in patent US20260272607A1, “METHOD OF MARKING LESIONS” (Cook Medical Technologies LLC, priority 2023, published 2026).
# Test system: lung nodules
# Conditions: ICG dye marking without use of a coil; prior experience
compound,measurement,value
"CC1(C)C(/C=C/C=C/C=C/C=C2\N(CCCCS(=O)(=O)O)c3ccc4ccccc4c3C2(C)C)=[N+](CCCCS(=O)(=O)[O-])c2ccc3ccccc3c21 [ICG dye, indocyanine green]",persistence of dye effect after ICG dye marking without a coil,fade away over several hours
